According to patent US6759557B2, “Melanin production inhibitors and skincare products containing such inhibitors” (Takasago International Corporation, priority 2001, dated 2004):

How the values were obtained:
melanoma cells B-16 = assay: Inhibiting effect on melanin synthesis in pigment cells (whiteness of cell residue observed by eye); format: cell-based; parameters: key to whiteness of cells rated by eye (melanin synthesis inhibition): −: same colour as the comparative solvent example (black); +: slight colour difference from the comparative solvent example (black grey); ++: clear colour difference from the comparative solvent example (white grey); +++: no colour in the cells (white); conditions: for whiteness of cells rated by eye (melanin synthesis inhibition): 4 days, B-16 melanoma cells
Experimental: In plastic culture flasks ([…]), 5×10^4 of melanoma cells B-16 were respectively inoculated and cultivated at 37° C. in DMEM culture media each containing 10% of blood serum (Nippon Suisan Co. Ltd) in the presence of 5% of carbon dioxide. After two days of cultivation, test samples diluted with ethanol were added to the culture media, so as to set their concentrations, respectively, at 1.6, 3.1 and 6.3 ppm for the compounds of Formula (1) where X is —CO— or —CHOH—, and at 0.8, 1.6 and 3.1 ppm for the compounds of Formula (1) where X is —CO—CHOH—. The culture media were further cultivated for 4 days.
When the cultivation was terminated, the culture media were removed from the respective flasks and the remaining cells were rinsed with a phosphate buffer solution (PBS hereinafter). The cells in each flask were treated with a culture medium containing trypsin and EDTA (ethylenediaminetetracetic acid) to yield cell suspensions. The latter were subjected to centrifugation, and the cells were recovered.
The obtained cells were once washed with PBS. The residues were observed by eye, and their whiteness was rated as below.

Row | SMILES | whiteness of cells rated by eye (melanin synthesis inhibition) (melanoma cells B-16; 1.6 ppm in culture medium) | whiteness of cells rated by eye (melanin synthesis inhibition) (melanoma cells B-16; 3.1 ppm in culture medium) | whiteness of cells rated by eye (melanin synthesis inhibition) (melanoma cells B-16; 6.3 ppm in culture medium) | whiteness of cells rated by eye (melanin synthesis inhibition) (melanoma cells B-16; 0.8 ppm in culture medium) | melting point [°C] | melanin synthesis inhibiting activity (in words) (melanoma cells B-16; concentration not given)
1 | CC1C=CCCCCCCCCCCC(O)CC1 (mixture of isomers) [5(EZ)-4-methylcyclohexadecenol] | + | ++ | +++ |  |  | 
2 | CC1C=CCCCCCCCCCCC(=O)CC1 (mixture of isomers) [5(EZ)-4-methylcyclohexadecenone] | + | ++ | +++ |  |  | 
3 | OC1CCCC=CCCCCCCCCCC1 (mixture of isomers) [5(EZ)-cyclohexadecenol] | + | ++ | +++ |  |  | 
4 | OC1CCCCCCCC=CCCCCCCC1 (mixture of isomers) [9(EZ)-cycloheptadecenol] | + | ++ | +++ |  |  | 
5 | O=C1CCCCCCCC=CCCCCCCC1 (mixture of isomers) [9(EZ)-cycloheptadecenone] | + | ++ | +++ |  |  | 
6 | OC1CCCCCCCCC=CCCCCCCCCC1 (mixture of isomers) [10(EZ)-cycloeicosenol] | ++ | +++ | +++ |  |  | 
7 | O=C1CCCCCCCCC=CCCCCCCCCC1 (mixture of isomers) [10(EZ)-cycloeicosenone] | ++ | +++ | +++ |  |  | 
8 | CC1CCCCCCCCCCCCC(=O)C1 (centres unmarked) [1-3-methylcyclopentadecanone] | + | ++ | +++ |  |  | 
9 | O=C1CCCCCCCC=CCCCCCC1O (centres unmarked) [2-hydroxy-8-cyclohexadecenone] | − | + |  |  |  | 
10 | O=C1CCCCCCCCC=CCCCCCCC1O (centres unmarked) [2-hydroxy-9-cyclooctadecenone] | ++ | +++ |  | + |  | 
11 | O=C1CCCCCCCCCC=CCCCCCCCC1O (centres unmarked) [2-hydroxy-10-cycloeicosenone] | +++ | +++ |  | ++ |  | 
12 | O=C1CCCCCCCCCCCC=CCCCCCCCCCC1O (centres unmarked) [2-hydroxy-12-cyclotetracosenone] | +++ | +++ |  | ++ |  | 
13 | O=C1CCCCCCCCCCCCCCC=CCCCCCCCCCCCCC1O (centres unmarked) [2-hydroxy-15-cyclotriacontenone, reference compound] |  | − |  |  |  | 
14 | O=C1CCCCCCCCCCCCCCCCCCC1O (centres unmarked) [2-hydroxycycloeicosanone] | +++ | +++ |  | ++ |  | 
15 | O=C1CCCCCCCCCCCCCCC1O (centres unmarked) [2-hydroxycyclohexadecanone] | − | + |  |  |  | 
16 | O=C1CCCCCCCCCCCCCCCCC1O (centres unmarked) [2-hydroxycyclooctadecanone] | ++ | +++ |  | + | 31 to 32 | 
17 | O=C1CCCCCCCCCCCCCC1O (centres unmarked) [2-hydroxycyclopentadecanone, reference compound] | − | − | +++ |  |  | 
18 | O=C1CCCCCCCCCCCCCCCCCCCCCCC1O (centres unmarked) [2-hydroxycyclotetracosanone] | +++ | +++ |  | ++ | 39 to 40 | 
19 | CCCCCCCCCCCCC(C)=O [2-tetradecanone, reference compound] |  | − | − |  |  | 

Row | SMILES | whiteness of cells rated by eye (melanin synthesis inhibition) (melanoma cells B-16; 1.6 ppm in culture medium) | whiteness of cells rated by eye (melanin synthesis inhibition) (melanoma cells B-16; 3.1 ppm in culture medium) | whiteness of cells rated by eye (melanin synthesis inhibition) (melanoma cells B-16; 6.3 ppm in culture medium) | whiteness of cells rated by eye (melanin synthesis inhibition) (melanoma cells B-16; 0.8 ppm in culture medium) | melting point [°C] | melanin synthesis inhibiting activity (in words) (melanoma cells B-16; concentration not given)
20 | CCCCCCCCCCCCCC(=O)CC [3-hexadecanone, reference compound] |  | − | − |  |  | 
21 | CC1/C=C/CCCCCCCCCCC(=O)CC1 (centres unmarked) [5(E)-4-methylcyclohexadecenone] | + | ++ | +++ |  |  | 
22 | O=C1CCC/C=C/CCCCCCCCCC1 [5(E)-cyclohexadecenone] | + | ++ | +++ |  |  | 
23 | O=C1CCC/C=C\CCCCCCCCCC1 [5(Z)-cyclohexadecenone] | + | ++ | +++ |  |  | 
24 | CCCCCCCC(=O)CCCCCCC [8-pentadecanone, reference compound] |  | − | − |  |  | 
25 | CCCCCCCCC(=O)CCCCCCCC [9-heptadecanone, reference compound] |  | − | − |  |  | 
26 | OC[C@H]1O[C@@H](Oc2ccc(O)cc2)[C@H](O)[C@@H](O)[C@@H]1O [arbutin, reference compound] | − | + | ++ |  |  | much weaker melanin-synthesis inhibiting activities
27 | OC1CCCCCCCCCCC1 [cyclododecanol, reference compound] |  | − | + |  |  | 
28 | O=C1CCCCCCCCCCC1 [cyclododecanone, reference compound] |  | − | + |  |  | 
29 | O=C1CCCCCCCCCCCCCCCCCCC1 [cycloeicosanone] | + | ++ | +++ |  |  | 
30 | OC1CCCCCCCCCCCCCCCC1 [cycloheptadecanol] | + | ++ | +++ |  |  | 
31 | O=C1CCCCCCCCCCCCCCCC1 [cycloheptadecanone] | + | ++ | +++ |  |  | 
32 | OC1CCCCCCCCCCCCCCC1 [cyclohexadecanol] | + | ++ | +++ |  |  | 
33 | O=C1CCCCCCCCCCCCCCC1 [cyclohexadecanone] | + | ++ | +++ |  |  | 
34 | OC1CCCCCCCCCCCCCC1 [cyclopentadecanol] | + | ++ | +++ |  |  | 
35 | O=C1CCCCCCCCCCCCCC1 [cyclopentadecanone] | + | ++ | +++ |  |  | 
36 | CC(=O)CCC1=C(C)CCCC1(C)C [dihydro-β-ionone, reference compound] | − | + | ++ |  |  | 
37 | CC(O)CCC1C(C)CCCC1(C)C (centres unmarked) [tetrahydroionol, reference compound] | − | + | ++ |  |  | 
